Activity calls are given as the source filed them. The rule behind the calls is not given here.

Test [1] concerns the target T1, Alpha-hemolysin (Staphylococcus aureus) (UniProt P09616).
T1 sequence (whole entry): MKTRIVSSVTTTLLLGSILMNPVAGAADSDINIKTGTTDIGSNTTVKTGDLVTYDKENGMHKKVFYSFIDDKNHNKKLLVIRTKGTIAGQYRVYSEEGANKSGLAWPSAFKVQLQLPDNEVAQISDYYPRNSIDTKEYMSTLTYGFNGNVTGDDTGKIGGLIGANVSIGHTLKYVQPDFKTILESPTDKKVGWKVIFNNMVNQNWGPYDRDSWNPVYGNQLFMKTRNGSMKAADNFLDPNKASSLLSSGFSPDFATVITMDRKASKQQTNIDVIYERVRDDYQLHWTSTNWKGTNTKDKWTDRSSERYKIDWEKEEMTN
Description: Inhibition of deoxycholate-induced wild type Staphylococcus aureus alpha-hemolysin oligomerization at 16 ug/ml by SDS-PAGE analysis.

In test [2] the target is T1, Alpha-hemolysin (Staphylococcus aureus). Description: Binding affinity to wild type Staphylococcus aureus alpha-hemolysin by fluorescence quenching method.
For test [3], the system named is Staphylococcus aureus. Nature of the test: Antimicrobial activity against Staphylococcus aureus at 1024 ug/ml by broth microdilution method. Format: functional, organism-based. Background: Dilution methods test growth across graded concentrations, often in twofold steps.
Test [4] concerns Staphylococcus aureus. Description: Inhibition of alpha-hemolysin protein expression in Staphylococcus aureus 8325-4 at 4 to 256 ug/ml by Western blot analysis. Format: functional, organism-based.

For `Cc1c(O)c(C)c2c(c1O)C(=O)CC(c1ccc(O)c(O)c1)O2` (centres undefined), the inhibition entry in test [1] was “Active”. Further, the result in test [2] was Active. For the same compound, the outcome in the test on Staphylococcus aureus [3] was inactive. The inhibition entry in the test on Staphylococcus aureus [4] is “inactive”.
